The values below come from ChEMBL document CHEMBL5360640, “Liquiritigenin Confers Liver Protection by Enhancing NRF2 Signaling through Both Canonical and Non-canonical Signaling Pathways” (2023).

Experiment [1] concerns BNL CL.2. The experiment can be described thus: Effect of ROS generation in mouse BNL CL.2 NRF2 knockout cells assessed as increase in ROS level treated at 40 uM for 24 hrs (reference value: 10.6%). The experiment is classed as functional.
Experiment [2] concerns Mus musculus. The experiment can be described thus: Hepatoprotective activity against cisplatin induced liver injury […] mouse model assessed as reduction of AST in serum at 40 mg/kg, ip administered every 24 hrs for 72 hrs. In kind it is functional, organism-based.
Experiment [3] relates to BNL CL.2. The experiment can be described thus: Upregulation of DZANK1 mRNA expression in mouse […] cells. In kind it is functional, cell-based.
Experiment [4] has as its system BNL CL.2. Kind of experiment: Effect of ROS generation in mouse BNL CL.2 cells incubated at 10 uM for 24 hrs (reference value: 9.42%). In kind it is functional.
Experiment [5] deals with T1, Nuclear factor erythroid 2-related factor 2 (Mus musculus) (UniProt Q60795).
T1 sequence (whole entry): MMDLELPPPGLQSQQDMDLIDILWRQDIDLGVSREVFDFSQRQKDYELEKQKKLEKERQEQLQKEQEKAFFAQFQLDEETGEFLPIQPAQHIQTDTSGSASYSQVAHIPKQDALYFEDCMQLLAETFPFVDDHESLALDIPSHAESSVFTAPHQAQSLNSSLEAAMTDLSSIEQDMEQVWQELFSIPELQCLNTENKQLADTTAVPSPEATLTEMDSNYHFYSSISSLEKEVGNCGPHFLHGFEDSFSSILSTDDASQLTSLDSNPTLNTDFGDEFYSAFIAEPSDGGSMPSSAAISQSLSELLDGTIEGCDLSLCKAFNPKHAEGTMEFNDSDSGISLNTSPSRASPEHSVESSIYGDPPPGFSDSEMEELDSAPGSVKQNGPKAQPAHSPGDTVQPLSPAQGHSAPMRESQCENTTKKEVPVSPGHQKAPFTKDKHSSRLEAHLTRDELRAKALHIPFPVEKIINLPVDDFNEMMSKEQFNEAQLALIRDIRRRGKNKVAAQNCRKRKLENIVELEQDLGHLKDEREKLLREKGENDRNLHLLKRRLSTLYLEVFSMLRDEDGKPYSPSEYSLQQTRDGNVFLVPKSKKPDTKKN
Kind of experiment: Activation of NRF2 in mouse BNL CL.2 cells treated for 8 to 24 hrs by immunoblot analysis. In kind it is cell-based. The conditions noted are these: filed as activator, dose 10-40 µM, time 8-24 hrs. Background: In western blotting, separated proteins are transferred to a membrane and probed.

The test system of experiment [6] is BNL CL.2. The experiment can be described thus: Upregulation of ARSG mRNA expression in mouse […] CL.2 cells. In kind it is functional, cell-based.
The subject of experiment [7] is BNL CL.2. The experiment can be described thus: Effect of ROS generation in mouse BNL CL.2 cells incubated at 20 uM for 24 hrs (reference value: 9.42%). In kind it is functional.
Experiment [8] concerns BNL CL.2. The experiment can be described thus: Upregulation of DYNLT1 mRNA expression in mouse […] cells. In kind it is functional, cell-based.
The subject of experiment [9] is Mus musculus. Kind of experiment: In vivo activation of NRF2 in C57BL/6J mouse liver assessed as upregulation of NRF2 level administered at 40 mg/kg, ip 3 times in a day by immunohistochemistry analysis. The experiment is classed as functional, organism-based. Conditions: filed as activator, time 1.0 day.
Experiment [10] concerns BNL CL.2. Kind of experiment: Inhibition of autophagy in mouse BNL CL.2 cells assessed as decrease in LC3-II level incubated upto 80 uM for 24 hrs by immunoblotting analysis. In kind it is functional, cell-based.
The target in experiment [11] is Kelch-like ECH-associated protein 1/Nuclear factor erythroid 2-related factor 2 (Mus musculus) (UniProt Q60795+Q9Z2X8). Kind of experiment: Inhibition of in flag-tagged NRF2/wildtype His-tagged KEAP1 in mouse BNL CL.2 cells and protein-protein interaction at 40 uM for 24 hrs followed by treatment with MG132 for 4 hrs by immunoblot assay. The experiment is classed as cell-based. The conditions noted are these: filed as activator.
Kelch-like ECH-associated protein 1/Nuclear factor erythroid 2-related factor 2 (Mus musculus), sequence (Q9Z2X8 whole entry, looked up, one chain of several): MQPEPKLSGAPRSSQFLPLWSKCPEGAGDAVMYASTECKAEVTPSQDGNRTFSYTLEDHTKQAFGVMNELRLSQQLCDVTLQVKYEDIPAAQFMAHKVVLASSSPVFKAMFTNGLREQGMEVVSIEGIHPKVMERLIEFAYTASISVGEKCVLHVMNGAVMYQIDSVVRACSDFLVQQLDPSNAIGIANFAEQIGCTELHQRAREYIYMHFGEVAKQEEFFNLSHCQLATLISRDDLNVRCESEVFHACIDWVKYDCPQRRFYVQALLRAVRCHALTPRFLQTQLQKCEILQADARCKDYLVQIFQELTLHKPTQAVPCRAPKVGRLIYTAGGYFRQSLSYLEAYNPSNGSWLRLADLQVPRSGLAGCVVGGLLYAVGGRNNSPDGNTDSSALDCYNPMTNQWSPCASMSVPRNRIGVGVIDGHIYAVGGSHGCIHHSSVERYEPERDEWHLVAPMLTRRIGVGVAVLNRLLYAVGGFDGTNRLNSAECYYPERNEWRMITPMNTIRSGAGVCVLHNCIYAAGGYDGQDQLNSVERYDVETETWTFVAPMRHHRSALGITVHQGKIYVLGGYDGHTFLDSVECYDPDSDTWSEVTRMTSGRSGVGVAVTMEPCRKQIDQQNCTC

The test system of experiment [12] is Mus musculus. The experiment can be described thus: Hepatoprotective activity against cisplatin induced liver injury […] mouse model assessed as increase of NRF2 expression in liver tissue at 40 mg/kg, ip administered every 24 hrs for 72 hrs by IHC staining analysis. The experiment is classed as functional, organism-based.
The target of experiment [13] is T1, Nuclear factor erythroid 2-related factor 2 (Mus musculus). The experiment can be described thus: Activation of NRF2 in mouse BNL CL.2 cells assessed as increase in Hmox1 gene level upto 40 uM incubated upto 24 hrs by rt-qPCR analysis. The experiment is classed as cell-based. The conditions noted are these: filed as activator. For orientation: Quantitative PCR measures a nucleic acid by following its amplification.

Experiment [14] deals with Mus musculus. Kind of experiment: Hepatoprotective activity against cisplatin induced liver injury […] mouse model assessed as reduction of MDA in liver tissue at 40 mg/kg, ip administered every 24 hrs for 72 hrs. The experiment is classed as functional, organism-based.
The subject of experiment [15] is BNL CL.2. Kind of experiment: Inhibition of autophagy in mouse BNL CL.2 cells assessed as increase in p62 level incubated upto 80 uM for 24 hrs by immunoblotting analysis. In kind it is functional, cell-based.
The subject of experiment [16] is BNL CL.2. The experiment can be described thus: Upregulation of HIPK4 mRNA expression in mouse […] cells. In kind it is functional, cell-based.
The subject of experiment [17] is BNL CL.2. Kind of experiment: Effect on KEAP1 level in mouse BNL CL.2 cells assessed as no change treated at 40 uM for 24 hrs by immunoblot analysis. The experiment is classed as functional, cell-based.
In experiment [18] the test system is BNL CL.2. The experiment can be described thus: Effect on p62 level in mouse BNL CL.2 NRF2 knockout cells assessed as increase in protein level treated at 40 uM for 24 hrs by immunoblot analysis. In kind it is functional, cell-based.
Experiment [19] has as its target T2, Nuclear factor erythroid 2-related factor 2 (Homo sapiens) (UniProt Q16236).
T2 sequence (whole entry): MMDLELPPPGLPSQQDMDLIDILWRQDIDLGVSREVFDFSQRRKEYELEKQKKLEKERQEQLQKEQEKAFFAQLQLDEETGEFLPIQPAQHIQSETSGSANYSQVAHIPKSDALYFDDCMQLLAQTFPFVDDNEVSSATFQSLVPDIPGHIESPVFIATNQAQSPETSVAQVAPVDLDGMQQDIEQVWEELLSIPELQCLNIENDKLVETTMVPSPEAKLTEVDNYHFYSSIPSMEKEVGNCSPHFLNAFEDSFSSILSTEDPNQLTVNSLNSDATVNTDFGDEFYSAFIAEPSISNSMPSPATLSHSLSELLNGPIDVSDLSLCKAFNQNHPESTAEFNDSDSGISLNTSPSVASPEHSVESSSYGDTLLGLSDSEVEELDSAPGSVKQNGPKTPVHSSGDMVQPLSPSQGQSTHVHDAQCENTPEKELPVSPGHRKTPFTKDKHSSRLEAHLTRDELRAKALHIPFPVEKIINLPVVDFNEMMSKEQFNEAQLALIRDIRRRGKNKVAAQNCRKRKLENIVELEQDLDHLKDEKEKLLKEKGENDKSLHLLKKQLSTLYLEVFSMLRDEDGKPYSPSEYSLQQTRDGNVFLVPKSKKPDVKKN
Kind of experiment: Activation of NRF2 in human MHCC97H cells treated for 8 to 24 hrs by immunoblot analysis. In kind it is cell-based. Conditions: filed as activator, dose 10-40 µM, time 8-24 hrs.

Experiment [20] deals with T1, Nuclear factor erythroid 2-related factor 2 (Mus musculus). Kind of experiment: Ubiquitination activity in Flag-tagged NRF2 in mouse BNL CL.2 cells at 40 uM for 24 hrs followed by MG132 treatment for 4 hrs by immunoprecipitation assay. In kind it is cell-based.
For experiment [21], the system named is BNL CL.2. Kind of experiment: Upregulation of […] mRNA expression in mouse […] CL.2 cells. The experiment is classed as functional, cell-based.
Experiment [22] deals with T1, Nuclear factor erythroid 2-related factor 2 (Mus musculus). The experiment can be described thus: Activation of flag-tagged NRF2 in mouse BNL CL.2 cells in presence of His-tagged KEAP1 C151S mutant at 40 uM for 24 hrs followed by treatment with MG132 for 4 hrs by immunoblot assay. The conditions noted are these: filed as activator. The experiment is classed as cell-based.

The test system of experiment [23] is BNL CL.2. The experiment can be described thus: Effect on KEAP1 protein level in mouse BNL CL.2 cells assessed as no change in level at 40 uM measured upto 24 hrs. In kind it is functional, cell-based. Conditions: filed as activator.

Calls of active or inactive are those of the source. The rule behind the calls is not given here.

With `O=C1C[C@@H](c2ccc(O)cc2)Oc2cc(O)ccc21` [LIQUIRTIGENIN], the Activity with BNL CL.2 [1] was 8.04%; in the experiment on BNL CL.2 [4], 9.8%; in experiment [5], “Dose-Dependent Effect”; in the experiment on BNL CL.2 [7], 9.34%; in experiment [19], “Dose-Dependent Effect”. For the same molecule, the result in the experiment on Mus musculus [2], with BNL CL.2 [3], with BNL CL.2 [6], with BNL CL.2 [8], with Mus musculus [9] and with Mus musculus [12] was Active. The outcome (in [13]; with Mus musculus [14]; with BNL CL.2 [16]; in the experiment on BNL CL.2 [17]; in the experiment with BNL CL.2 [18]; in the experiment on BNL CL.2 [21]) was Active. Moreover, the result (in [22]; with BNL CL.2 [23]) was Active. In addition, the inhibition entry (in the experiment with BNL CL.2 [10]; in [11]; with BNL CL.2 [15]) was “Active” each time. For the same molecule, in experiment [20], the result was inactive.
